Experimental findings from patent publication US11192849B2, “Compounds, compositions, and methods for modulating ferroptosis and treating excitotoxic disorders” (THE TRUSTEES OF COLUMBIA UNIVERSITY IN THE CITY OF NEW YORK, priority 2013, dated 2021) are described below.

A value given as a limit tells only on which side of the number the result lay.

Usually EC50 stands for the concentration at which the effect is half-maximal.

The test system of assay [1] is rat organotypic hippocampal slice culture (OHSC). In words: Glutamate excitotoxic injury in organotypic hippocampal slice cultures (PI uptake). It is filed as cell-based. To be noted: 5 mM L-glutamate 3 hours; Fer-1 2 μM, CPX 5 μM, MK-801 10 μM; 24 hours. The method, then: OHSCs were cultured as previously described (Morrison et al., 2002) with approval from Columbia University's Institutional Animal Care and Use Committee (IACUC). Briefly, Sprague Dawley rat pups (P8-P10) were rapidly decapitated, and the hippocampus placed in ice-cold Gey's balanced salt solution (Sigma). 400 μm thick sections were cut using a Mcllwain tissue chopper and immediately plated on Millicell cell culture inserts (Millipore, Billerica, Mass.) in Neurobasal (Invitrogen) media supplemented with B27 (1×, Invitrogen), GlutaMAX (1 mM, Invitrogen), and D-glucose (4.5 mg/mL, Sigma) at 37° C. and 5% CO2. After 2 days in vitro (DIV), the media was changed to medium containing serum comprised of 50% DMEM (Sigma), 25% heat-inactivated horse serum (Sigma), 25% Hank's balanced salt solution (Sigma), GlutaMAX (1 mM, Invitrogen), and D-glucose (4.5 mg/mL, Sigma). Medium was changed every 2-3 days.
After 10-14 DIV, OBSCs were exposed to an excitotoxic injury consisting of a 3 hour exposure to 5 mM L-glutamate in SFM (Morrison et al., 2002). […] After the 3 hour exposure, the cultures were placed in fresh serum free media (SFM) containing 75% DMEM, 25% Hank's balanced salt solution, GlutaMAX (1 mM), D-glucose (4.5 mg/mL) until cell death was quantified at 24 hours. […]
Quantification of cell death has been described previously (Cater et al., 2007; Morrison et al., 2002). […] Percentage cell death was expressed as the number of pixels in the ROI above a threshold in the PI fluorescent image divided by the total number of pixels in the ROI.
OHSCs were treated with a lethal excitotoxic stimulus (5 mM L-glutamate, 3 hours) that mimics the consequences of stroke and neurodegenerative disease (Morrison et al., 2002; Sundstrom et al., 2005) (FIG. 5A). […] The effects of these compound treatments on propidium iodide (PI) uptake were analyzed, as an indicator of cell death, 24 hours following the end of glutamate treatment, in 3 defined regions of the OHSCs: the dentate gyrus (DG), the CA1 and the CA3 fields of the hippocampus.

Assay [2] relates to HT-1080 cells. In words: Inhibition of erastin (10 μM)-induced death in HT-1080 cells (Alamar Blue). Conditions: for prevention of erastin-induced death: erastin-treated HT-1080 cells. Type of assay: cell-based, human. The essentials:
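HT-1080 cells (1,000/well) were treated next day with 10 μM erastin plus a compound dilution series for 24 h. Alamar Blue (10% final) was then added for 6 h and fluorescence read at ex/em 530/590.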
On the technique in general: The colour change of resazurin is a common sign of viable cells or microbes.

Assay [3] concerns HT-1080 cells. In words: Acridine orange relocalization (lysosomal membrane permeabilization) in HT-1080 cells. It is filed as cell-based, human. Conditions: acridine orange re-localization. The method, then:
200,000 HT-1080 cells were seeded into 6-well dishes (Corning). The next day, cells were incubated with 25 ng/mL of AO for 15 minutes, then medium was removed and cells were incubated in growth medium for 15 minutes. […] Relocalization of AO from lysosomes (discrete red puncta) to the cytosol (diffuse green color) was determined using an EVOS fl digital inverted fluorescent microscope (Advanced Microscopy Group) equipped with GFP (ex/em 470/525) and RFP (ex/em 531/593) light cubes.

In another assay the test system is BJeLR and HT-1080 cells. The assay can be described thus: Measurement of ATP levels. Conditions: normalized to viability. Type of assay: cell-based, human. The method, then:
ATP levels were evaluated using the ApoSENSOR ATP Assay Kit (Biovision Inc., Milpitas, Calif.) according to the manufacturer's instructions. 2000 HT-1080 or BJeLR cells were seeded in 96-well white bottom plates (Falcon). Cells were treated 12 hours later with compound as above for the TEM. Prior to luminescence measurement, medium was removed and cells were lysed and incubated with ATP Monitoring Enzyme. Luminescence was measured using a Victor3 platereader equipped with an infrared emission filter every 30 seconds for 10 minutes. Typically the first reading was used for data analysis. Parallel cell culture treatments were performed in 96-well clear bottom plates and cell viability was determined using Alamar Blue. These values were used to normalize ATP levels to cell viability.

The next assay deals with SLC7A11. In words: SLC7A11 mRNA levels (RT-qPCR) in HT-1080 cells. It is filed as cell-based, human. To be noted: 6 hours. The method, then: RNA was extracted using the Qiashredder and Qiagen RNeasy Mini kits (Qiagen) according to the manufacturer's protocol. 2 μg total RNA for each sample was used as input for each reverse transcription reaction, performed using the TaqMan RT kit (Applied Biosystems, Life Technologies Corp., Carlsbad, Calif.). Primer pairs were designed for target transcripts using Primer Express 2.0 (Applied Biosystems). Quantitative PCR reactions were performed using the Power SYBR Green PCR Master Mix (Applied Biosystems). Triplicate samples per condition were analyzed on an Applied Biosystems 7300 qPCR instrument using absolute quantification settings. Differences in mRNA levels compared to HPRT1 or ACTB internal reference control were computed between control and experimental conditions using the ΔΔCt method.
(Quantitative PCR measures a nucleic acid by following its amplification.)

Assay [4] is described as follows: 2,2-Diphenyl-1-picrylhydrazyl (DPPH) cell-free antioxidant assay. Type of assay: biochemical. Conditions: test compound 0.05 mM, 30 minutes. The method, then: The stable radical DPPH (Blois, 1958) was dissolved in methanol to a final working concentration of 0.05 mM. This was prepared as follows. First, a 100× stock concentration (5 mM) was prepared by dissolving 3.9 mg DPPH in 2 mL methanol. Then, for 25 mL of 0.05 mM final working solution, 250 μL of the 5 mM solution was added to 24.75 mL of methanol. 1 mL of DPPH solution was added to a small volume (<5 μL) each test compound dissolved in DMSO. The final concentration of each test compound was 0.05 mM. Samples were inverted several times and allowed to incubate at room temperature for 30 minutes. Samples were then aliquoted to white 96-well solid-bottom dishes (Corning) and absorbance at 517 nm was recorded using a TECAN M200 plate reader. All values were normalized to background (methanol only). The experiment was repeated three times and the data was averaged.
In parallel with the above cell-based assay, a 2,2-diphenyl-1-picrylhydrazyl (DPPH) assay was used to examine the ability of each analog to scavenge free radicals in a cell-free in vitro solution—a test of intrinsic antioxidant capacity. […] Redox active analogs scavenged the DPPH radical by 60-90% within 30 minutes (FIG. 18a).
A general note: The DPPH test is a chemical assay of radical scavenging.

Assay [5] deals with HT-1080 cells. The assay can be described thus: Mitochondrial ROS (MitoSOX) in HT-1080 cells. It is filed as cell-based, human. To be noted: HT-1080, 6 hours; erastin 10 μM, rotenone 250 nM.
Method: 200,000 HT-1080 cells were seeded into 6-well dishes (Corning). The next day, cells were treated with +/−rotenone +/−ferrostatin-1 for 3 hours (for MitoSOX experiments) or +/−STS +/−ferrostatin-1 for 4 hours (for 10-N-nonylacridine orange [NAO] experiments), harvested by trypsinization and analyzed as follows. For the analysis of mitochondrial ROS, cells were incubated with 5 μM MitoSOX (Molecular Probes/Invitrogen) in HBSS for 10 minutes in the dark at 37° C. […] MitoSOX data were collected in the FL2 channel and NAO data was collected in the FL1 channel. Data are from three independent biological replicates of each experiment. Data were analyzed by one-way ANOVA with Bonferroni's post-hoc test.
A minimum of 10,000 cells were analyzed per condition.
Another assay addresses T1, system xc− (Homo sapiens, UniProt Q9UPY5).
T1 construct: endogenous in cells; host or cells: HT-1080 cells (ATCC)
T1 sequence (Q9UPY5 1-501): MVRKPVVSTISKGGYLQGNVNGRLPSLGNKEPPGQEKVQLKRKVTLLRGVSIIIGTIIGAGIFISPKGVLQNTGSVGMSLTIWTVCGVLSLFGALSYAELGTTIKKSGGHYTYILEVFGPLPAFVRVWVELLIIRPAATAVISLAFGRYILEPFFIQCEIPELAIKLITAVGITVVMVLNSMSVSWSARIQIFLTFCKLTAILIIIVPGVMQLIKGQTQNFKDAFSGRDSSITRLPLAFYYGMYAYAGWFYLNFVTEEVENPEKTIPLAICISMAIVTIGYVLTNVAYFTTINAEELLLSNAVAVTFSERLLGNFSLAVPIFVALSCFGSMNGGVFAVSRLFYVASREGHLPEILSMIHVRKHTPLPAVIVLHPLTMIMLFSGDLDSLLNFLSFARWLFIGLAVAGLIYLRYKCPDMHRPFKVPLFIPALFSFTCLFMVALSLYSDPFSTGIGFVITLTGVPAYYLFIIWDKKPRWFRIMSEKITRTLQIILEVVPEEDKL
T1 sequence (P08195 1-529 partner): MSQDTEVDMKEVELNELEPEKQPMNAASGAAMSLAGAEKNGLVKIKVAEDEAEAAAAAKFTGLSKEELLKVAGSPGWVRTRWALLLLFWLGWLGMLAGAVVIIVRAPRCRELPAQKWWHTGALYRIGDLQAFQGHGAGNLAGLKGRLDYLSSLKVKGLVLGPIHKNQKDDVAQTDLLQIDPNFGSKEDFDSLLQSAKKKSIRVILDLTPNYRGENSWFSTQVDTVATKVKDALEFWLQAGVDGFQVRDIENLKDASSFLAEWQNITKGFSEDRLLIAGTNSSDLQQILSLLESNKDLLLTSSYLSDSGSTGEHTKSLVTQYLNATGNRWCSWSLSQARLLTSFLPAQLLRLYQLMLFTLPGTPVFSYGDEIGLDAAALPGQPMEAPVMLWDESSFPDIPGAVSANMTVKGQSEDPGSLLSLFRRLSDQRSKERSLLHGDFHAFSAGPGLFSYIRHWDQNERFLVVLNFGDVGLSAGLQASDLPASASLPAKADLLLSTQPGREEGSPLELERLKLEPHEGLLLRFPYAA
The assay can be described thus: [14C]Cystine uptake assay in HT-1080 cells. It is filed as cell-based. Conditions: Erastin 10 μM, glutamate 50 mM, SAS 1 mM. The method, then: 200,000 HT-1080 cells/well were seeded overnight in 6-well dishes (Corning). […] At this point, in each well the buffer was replaced with 600 μL uptake buffer containing compound and 0.12 μCi (80-110 mCi/mmol) of L-[3,3′-^14C]-cystine (Perkin Elmer) and incubated for 3 minutes at 37° C. Cells were then washed three times with ice-cold uptake buffer and lysed in 500 μL 0.1 M NaOH. To this lysate was added 15 mL of scintillation fluid and radioactive counts per minute were obtained using a scintillation counter. All measurements were performed in triplicate for each condition.

A further assay concerns 143B osteosarcoma cells. In words: Erastin / RSL3 lethality in 143B ρ0 and ρ+ cells. Type of assay: cell-based, human. Conditions: 24 hours. The method, then:
Cell viability was typically assessed in 384-well format by Alamar Blue (Invitrogen) fluorescence (ex/em 530/590) measured on a Victor3 platereader (Perkin Elmer, Waltham, Mass.). In some experiments, Trypan Blue dye exclusion counting was performed using an automated cell counter (ViCell, Beckman-Coulter Inc., Brea, Calif.). Cell viability in test conditions is reported as a percentage relative to the negative control treatment.
Because two erastin targets, VDAC2 and VDAC3, reside in the mitochondria, it was hypothesized that erastin-induced death involved aberrant ROS production by the mitochondrial electron transport chain (ETC). […] Furthermore, KRAS-mutant 143B osteosarcoma cells incapable of ETC-dependent ROS formation, due to the depletion of mitochondrial DNA (mtDNA)-encoded transcripts (ρ^0 cells), were as sensitive to erastin and RSL3 as matched mtDNA-wild-type (ρ^+) cells (FIGS. 1E, 1F, and 8C-E). Thus, erastin-induced cell death in human cancer cells involves DFO-sensitive ROS accumulation and can occur in cells lacking a functional ETC. This iron-dependent death phenotype was named ferroptosis.

Regarding `Cc1cc(C2CCCCC2)n(O)c(=O)c1` [CPX, ciclopirox olamine, reference compound], the “glutamate-induced cell death (PI uptake) in DG, CA1, CA3” value in [1] was “attenuated significantly”. For the same compound, the “prevention of erastin-induced death” value with HT-1080 cells [2] is recorded as “suppressed erastin-induced death”. For the same compound, the “lysosomal membrane destruction in response to H2O2” value with HT-1080 cells [3] is “protects from lysosomal rupture”.

Consider `OO` [Compound H2O2, hydrogen peroxide], for which the “intracellular ATP” value in the assay with BJeLR and HT-1080 cells is listed as “substantial depletion of intracellular ATP”.

On to `OCCS` [β-ME, β-mercaptoethanol, reference compound], for which the “prevention of erastin-induced death” value in the assay with HT-1080 cells [2] is given as “strongly inhibited cell death”. Moreover, the “effect on erastin/SAS-induced SLC7A11 upregulation” value with SLC7A11 is on record as “suppressed”.

Consider `CCOC(=O)c1ccc(N)c(N)c1` [CA1], for which the EC50 in the assay with HT-1080 cells [2] (SI Table 8, read-out: EC50) is > 10 µM. Besides, the “prevention of erastin-induced death” value in the assay on HT-1080 cells [2] is “destroyed”. For the same compound, the “intrinsic antioxidant capability in the DPPH assay” value in assay [4] was “destroyed the antioxidant capability”.

For the compound `C=C(C)[C@H]1Cc2c(ccc3c2O[C@@H]2COc4cc(OC)c(OC)cc4[C@@H]2C3=O)O1` [rotenone, reference compound], in the assay with HT-1080 cells [5], the “MitoSOX-sensitive mitochondrial ROS production” value is recorded as “enhanced MitoSOX-sensitive ROS production”.

Regarding `COC(=O)c1ccc([C@@H]2c3[nH]c4ccccc4c3C[C@@H](C(=O)OC)N2C(=O)CCl)cc1` [RSL3], the “Na+-independent uptake of [14C]cystine” value on system xc− was “had no effect on this process”. The “sensitivity of ρ0 versus ρ+ cells” value with 143B osteosarcoma cells is on record as “as sensitive”.
